Assay results reported in PMC4710893 (ACS Combinatorial Science, 2015).
“And” between values parts separate entries of the source, which are not always exact repeats. Equal values may be shown once.

Columns and labels:
[1] = target: T1, K-Ras G12V (Homo sapiens, UniProt P01116, G12V); test: Fluorescence anisotropy; format: binding
[2] = system: p-MEK; test: Immunoblot of MEK phosphorylation in H1299 cells; format: cell-based, human; conditions: H1299, 0-18 μM for 12 h, EGF 50 ng/mL 10 min
[3] = system: p-Akt at Thr308; test: Immunoblot of Akt phosphorylation in H1299 cells; format: cell-based, human; conditions: H1299, 0-18 μM for 12 h, EGF 50 ng/mL 10 min
[4] = system: H1299 cells; test: Live-cell confocal microscopy of internalization; format: cell-based, human; conditions: H1299, 5 μM FITC-labeled peptide, 2 h
[5] = system: H441 human lung cancer cells; test: MTT cell viability assay, H441; format: cell-based; conditions: 0-40 μM
[6] = system: H1299 lung cancer cell line; test: MTT cell viability assay, H1299; format: cell-based, human; conditions: H1299 (Q61K N-Ras), 24 h
[7] = system: H1299 cells; test: Cellular uptake by flow cytometry; format: cell-based, human
[8] = target: T1, K-Ras G12V; test: FA-based competition assay with DCAI; format: binding
[9] = target: K-Ras; conditions: read-out: KD, DCAI binding to K-Ras; cited from earlier work

Molecule: bicyclo [Tm-Ala-leu-Phe-Arg-asn-Pra-Ile-Asp-Lys-Phe-Nal-Arg-Arg-Arg-Arg-Dap]-Lys [peptide 54]
- lower affinity than peptide 49 ([1]; K-Ras G12V, peptide lacking the DCAI moiety): ~80 fold
- Kd ([1]; read-out: KDapp, FA, FITC-labeled peptide 100 nM, K-Ras G12V as purified from E. coli, mixture of GTP- and GDP-bound forms): 17 ± 11 µM
- reduction of EGF-induced p-MEK level [2]: no effect
- reduction of EGF-induced p-Akt level [3]: no effect
- internalization / intracellular distribution [4]: largely similar intracellular distribution
- reduction in cell viability [5]: significant reduction in cell viability only at the highest inhibitor concentration tested
- LD50 [6]: > 40 µM
- cell entry efficiency, fold lower than cFΦR4 ([7]; H1299, 5 μM FITC-labeled peptide, 2 h): ~3 fold
- cell permeability ([7]; tested for cellular uptake): readily cell permeable

Molecule: Cc1[nH]c2cc(Cl)cc(Cl)c2c1CCN [DCAI, 4,6-dichloro-2-methyl-3-aminoethylindole]
- IC50 [8]: 840 ± 220 µM
- Kd [9]: 1100 µM and ~1100 µM
